From article PMC5729604, “Dual inhibitors of hepatitis C virus and hepatocellular carcinoma: design, synthesis and docking studies” (Future Science OA, 2017) come the findings set out here.

The series concerns human HCC cell line HepG2. The series can be described thus: cells. The class given is cell-based. The following applies: for IC50: Homo sapiens, HepG2, 72 h, neutral red; for IC50 / (LD0) HepG2 / Safe doses (100% viability of HepG2) LD0: 72 h; for in vitro anticancer activity against HepG2, in words: IC50 <100 μg/ml potential, 100-1000 μg/ml moderate; for (LD0) HepG2 / Safe doses (100% viability of HepG2) LD0: human. The method, then:
The safe compounds on RBCs (5a-g, 5i-l, 5p-r, 5v-w, 6b-g) were screened for their potential anticancer activity against human HCC cell line HepG2. HepG2 cells were exposed to the test compounds, then viability of cells was measured using neutral red uptake assay as described by Borenfreund and Puerner. This assay depends on the fact that neutral red dye can be incorporated into the lysosomes of living cells providing a quantitative assay to the cytotoxic effects. The results were interpreted to calculate both the concentration causing 50% cancer cell death (IC50) of each compound and the maximum safe concentration that cause 100% viability (LD0; to be used in the in vitro anti-HCV testing) using GraphPad InStat 3.0 software (Figure 5 & Supplementary Table 2).
HepG2 cells were routinely maintained as adherent cell cultures in RPMI-1640 medium (Lonza Group Ltd, Basel, Switzerland) supplemented with 10% fetal bovine serum (FBS; Lonza, IL, USA) at 37°C in a humidified air incubator containing 5% CO2. Cells were subcultured for 2 weeks before assay. Cell viability was assessed using trypan blue exclusion method.
HepG2 cells were washed twice in RPMI-1640 medium supplemented with 200 μM L-glutamine (Lonza) and […] 4-(2-hydroxyethyl)-1-piperazineethanesulfonic acid (HEPES) buffer (Lonza). The cells were suspended at 3 × 10^4 cells/ml in RPMI culture medium (RPMI supplemented medium and 10% FBS). The appropriate number of cells was chosen to be 3 × 10^3 cells/well (100 μl of the prepared suspension), and the cells were left to adhere on the polystyrene 96-well plates in an incubator at 37°C, 5% CO2 and 95% humidity for 24 h. The cells were washed once using RPMI supplemented medium.
A 2 mg/ml stock solution of each compound was prepared in DMF and filtered using a 0.2 μM syringe filter. The desired concentrations (20, 10, 5, 2.5 and 1.25 μg/ml) were prepared using serial dilution in a 96-well plate. Compound wells were prepared by adding 100 μl of the previously prepared concentrations to a 100 μl of HepG2 cells suspension. Parallel concentrations of the solvent were prepared to be used as controls. 5-Fluorouracil was used as a positive control. Control wells were prepared by adding 100 μl culture media to a 100 μl of HepG2 cells suspension. Blank wells contained 200 μl of culture media only (without cells or compound solution). Each set of samples was pipetted in duplicate. The plate was gently shaken, then incubated at 37°C, 5% CO2 for 72 h.
After incubation, the plate was centrifuged (2000 r.p.m. for 10 min). The media were discarded by inversion over paper towels. A working solution (100 μg/ml) of neutral red stain (Bio Basic Inc, Markham, Canada) was prepared, and 100 μl of this solution was added to each well, then the plate was gently shaken. The plate was incubated at 37°C in humidified 5% CO2 for 3 h, and then centrifuged (2000 r.p.m. for 10 min). Excess dyes were discarded, and the cells were fixed with 100 μl fixing solution (0.5% formalin with 1% calcium chloride [Sigma-Aldrich]) for 1 min. Cells were destained in 100 μl destaining solution (50% ethanol with 1% glacial acetic acid [Sigma-Aldrich]) for 5 min by shaking. The stain intensity was assayed using automated microplate reader spectrophotometer adjusted at 490 nm. Surviving cell fraction was calculated according to the following equation: [drawing 3]
The results were interpreted to calculate both the concentration causing 50% cancer cell death (IC50) of each compound and the maximum safe concentration that cause 100% viability (LD0; to be used in the in vitro anti-HCV testing) using GraphPad InStat 3.0 software.

Setting [1] is: Table 1, read-out: IC50 (HepG2).
Where [2] appears, read: read-out: IC50 against HepG2 cells.
Where [3] appears, read: Supplementary Table 2, read-out: Anticancer (HepG2) IC50.

Values after ≈ are worked out from the molar mass of the structure shown. Where two headings read alike, the source gives them in different places.

For `COc1ccc(-c2nn(-c3ccccc3)cc2C=C2SC(=NN=C(C)c3nc4ccccc4[nH]3)N(c3ccc(Cl)cc3)C2=O)cc1` [Compound 5r, 2-[1-(1H-Benzimidazole-2-yl)ethylidenehydrazono]-5-{[3-(4-methoxyphenyl)-1-phenyl-1H-pyrazol-4-yl]methylene}-3-(4-chlorophenyl)thiazolidin-4-one], the “in vitro anticancer activity against HepG2, in words” value (from here on “in vitro anticancer activity”) is recorded as “potential in vitro anticancer activity”; the “(LD0) HepG2” value amounted to 0.18 µg/mL; the “Safe doses (100% viability of HepG2) LD0” value turned out to be 0.181 µg/mL. For the same compound, the half-maximal inhibitory concentration (IC50) under setting [1] was determined as 11 µg/mL (≈ 17.1 µM). The IC50 under setting [2] was less than 50 µg/mL. Under “LD50 on PBMC / IC50 on HepG2”, this compound had a Selectivity index of 3.99. In addition, the “Selectivity index” value (LD50 on normal cells / IC50 on cancer cells, larger than three = highly selective) is recorded as “larger than three”.
`CC(=NN=C1SC(=Cc2cn(-c3ccccc3)nc2-c2ccccc2)C(=O)N1C1CCCCC1)c1nc2ccccc2[nH]1` [Compound 5v, 2-[1-(1H-Benzimidazole-2-yl)ethylidenehydrazono]-5-[(1,3-Diphenyl-1H-pyrazol-4-yl)methylene]-3-cyclohexylthiazolidin-4-one]: the “(LD0) HepG2” value is 30.89 µg/mL and the “Safe doses (100% viability of HepG2) LD0” value was found to be 30.89 µg/mL. Also, the IC50 under setting [3] stood at 250 µg/mL (≈ 427 µM).
With `CC(=NN=C1SC(=Cc2cn(-c3ccccc3)nc2-c2ccc(Cl)cc2)C(=O)N1C1CCCCC1)c1nc2ccccc2[nH]1` [Compound 5w, 2-[1-(1H-Benzimidazole-2-yl)ethylidenehydrazono]-5-{[3-(4-chlorophenyl)-1-phenyl-1H-pyrazol-4-yl]methylene}-3-cyclohexylthiazolidin-4-one], the “in vitro anticancer activity” value is reported as “very weak anticancer activity”; the “(LD0) HepG2” value amounted to 92.40 µg/mL; the “Safe doses (100% viability of HepG2) LD0” value came out at 92.40 µg/mL. For the same compound, under setting [3], the IC50 worked out at 1100 µg/mL (≈ 1770 µM).
With `CC(=NN=C1SC(=C2C(=O)Nc3ccccc32)C(=O)N1c1ccc(Cl)cc1)c1cc2ccccc2o1` [Compound 6b, 2-[1-(Benzofuran-2-yl)ethylidenehydrazono]-5-(2-oxoindolin-3-ylidene)-3-(4-chlorophenyl)thiazolidin-4-one], the “(LD0) HepG2” value was 11.07 µg/mL and the “Safe doses (100% viability of HepG2) LD0” value came out at 11.07 µg/mL. Besides, under setting [3], the IC50 amounted to 354 µg/mL (≈ 689 µM).
In the case of `COc1ccc(N2C(=O)C(=C3C(=O)Nc4ccccc43)SC2=NN=C(C)c2cc3ccccc3o2)cc1` [Compound 6c, 2-[1-(Benzofuran-2-yl)ethylidenehydrazono]-5-(2-oxoindolin-3-ylidene)-3-(4-methoxyphenyl)thiazolidin-4-one], the “in vitro anticancer activity” value is “potential in vitro anticancer activity”; the “(LD0) HepG2” value worked out at 3.40 µg/mL; the “Safe doses (100% viability of HepG2) LD0” value amounted to 3.40 µg/mL. In addition, the IC50 under setting [1] amounted to 76.8 µg/mL (≈ 151 µM). The Selectivity index (LD50 on PBMC / IC50 on HepG2) is on record as 0.37.
Turning to `CC(=NN=C1SC(=C2C(=O)Nc3ccccc32)C(=O)N1C1CCCCC1)c1cc2ccccc2o1` [Compound 6d, 2-[1-(Benzofuran-2-yl)ethylidenehydrazono]-5-(2-oxoindolin-3-ylidene)-3-cyclohexylthiazolidin-4-one], the “in vitro anticancer activity” value was “potential in vitro anticancer activity”; the “(LD0) HepG2” value was determined as 7.31 µg/mL; the “Safe doses (100% viability of HepG2) LD0” value amounted to 7.31 µg/mL. For the same compound, the IC50 under setting [1] stood at 34.3 µg/mL (≈ 70.7 µM). In addition, the IC50 under setting [2] was less than 50 µg/mL. Also, the Selectivity index (LD50 on PBMC / IC50 on HepG2) is 0.42.
As to `CC(=NN=C1SC(=C2C(=O)Nc3ccccc32)C(=O)N1c1ccccc1)c1nc2ccccc2[nH]1` [Compound 6e, 2-[1-(1H-Benzimidazole-2-yl)ethylidenehydrazono]-5-(2-oxoindolin-3-ylidene)-3-phenylthiazolidin-4-one], the “(LD0) HepG2” value was found to be 16.75 µg/mL and the “Safe doses (100% viability of HepG2) LD0” value was 16.75 µg/mL. For the same compound, the half-inhibitory concentration (IC50) under setting [3] is 110 µg/mL (≈ 231 µM).
In the case of `CC(=NN=C1SC(=C2C(=O)Nc3ccccc32)C(=O)N1c1ccc(Cl)cc1)c1nc2ccccc2[nH]1` [Compound 6f, 2-[1-(1H-Benzimidazole-2-yl)ethylidenehydrazono]-5-(2-oxoindolin-3-ylidene)-3-(4-chlorophenyl)thiazolidin-4-one], the “(LD0) HepG2” value is 35.33 µg/mL and the “Safe doses (100% viability of HepG2) LD0” value came to 35.33 µg/mL. Under setting [3], the IC50 was 154 µg/mL (≈ 300 µM).
Turning to `COc1ccc(N2C(=O)C(=C3C(=O)Nc4ccccc43)SC2=NN=C(C)c2nc3ccccc3[nH]2)cc1` [Compound 6g, 2-[1-(1H-Benzimidazole-2-yl)ethylidenehydrazono]-5-(2-oxoindolin-3-ylidene)-3-(4-methoxyphenyl)thiazolidin-4-one], the “(LD0) HepG2” value was found to be 18.62 µg/mL and the “Safe doses (100% viability of HepG2) LD0” value was 18.62 µg/mL. In addition, the IC50 under setting [3] came to 248 µg/mL (≈ 487 µM).
